These are literature values, as cited in patent publication US20250325549A1, “ORAL TABLET COMPOSITION OF RUXOLITINIB AND METHOD FOR PREPARING SAME” (SAMYANG HOLDINGS CORPORATION, priority 2021, published 2025).

The conditions of the series: Shi et al., J. Clin. Pharmacol. 2012.

Consider `N#CC[C@H](C1CCCC1)n1cc(-c2ncnc3[nH]ccc23)cn1` [Ruxolitinib, (3R)-3-cyclopentyl-3-[4-(7H-pyrrolo[2,3-d]pyrimidin-4-yl)pyrazol-1-yl]propanenitrile], for which the half-life result is recorded as “approximately 3 hours”.
